O=Cc1ccc(O)cc1
Settings	solubility (mole fraction)
in 1,4-dioxane, 283.15 K	0.0467
in 1,4-dioxane, 285.65 K	0.0555
in 1,4-dioxane, 288.15 K	0.0655
in 1,4-dioxane, 290.65 K	0.0772
in 1,4-dioxane, 293.15 K	0.0905
in 1,4-dioxane, 295.65 K	0.106
in 1,4-dioxane, 298.15 K	0.123
in 1,4-dioxane, 300.65 K	0.141
in 1,4-dioxane, 303.15 K	0.163
in 1,4-dioxane, 305.65 K	0.186
in 1,4-dioxane, 308.15 K	0.211
in 1,4-dioxane, 310.65 K	0.238
in 1,4-dioxane, 313.15 K	0.267
in 1,4-dioxane, 315.65 K	0.299
in 1,4-dioxane, 318.15 K	0.334
in 2-butanone, 278.15 K	0.0731
in 2-butanone, 280.65 K	0.0822
in 2-butanone, 283.15 K	0.0911
in 2-butanone, 285.65 K	0.101
in 2-butanone, 288.15 K	0.111
in 2-butanone, 290.65 K	0.123
in 2-butanone, 293.15 K	0.135
in 2-butanone, 295.65 K	0.148
in 2-butanone, 298.15 K	0.163
in 2-butanone, 300.65 K	0.177
in 2-butanone, 303.15 K	0.194
in 2-butanone, 305.65 K	0.21
in 2-butanone, 308.15 K	0.229
in 2-butanone, 310.65 K	0.247
in 2-butanone, 313.15 K	0.267
in 2-butanone, 315.65 K	0.288
in 2-butanone, 318.15 K	0.309
in DMF, 278.15 K	0.0741
in DMF, 280.65 K	0.0863
in DMF, 283.15 K	0.0997
in DMF, 285.65 K	0.114
in DMF, 288.15 K	0.131
in DMF, 290.65 K	0.148
in DMF, 293.15 K	0.168
in DMF, 295.65 K	0.191
in DMF, 298.15 K	0.214
in DMF, 300.65 K	0.241
in DMF, 303.15 K	0.27
in DMF, 305.65 K	0.302
in DMF, 308.15 K	0.338
in DMF, 310.65 K	0.376
in DMF, 313.15 K	0.416
in DMF, 315.65 K	0.458
in DMF, 318.15 K	0.504
in acetone, 278.15 K	0.0713
in acetone, 280.65 K	0.0796
in acetone, 283.15 K	0.0889
in acetone, 285.65 K	0.0986
in acetone, 288.15 K	0.109
in acetone, 290.65 K	0.12
in acetone, 293.15 K	0.133
in acetone, 295.65 K	0.145
in acetone, 298.15 K	0.159
in acetone, 300.65 K	0.174
in acetone, 303.15 K	0.189
in acetone, 305.65 K	0.205
in acetone, 308.15 K	0.222
in acetone, 310.65 K	0.24
in acetone, 313.15 K	0.259
in acetone, 315.65 K	0.279
in acetone, 318.15 K	0.299
in acetonitrile, 278.15 K	0.0318
in acetonitrile, 280.65 K	0.036
in acetonitrile, 283.15 K	0.0405
in acetonitrile, 285.65 K	0.0454
in acetonitrile, 288.15 K	0.0508
in acetonitrile, 290.65 K	0.0567
in acetonitrile, 293.15 K	0.0632
in acetonitrile, 295.65 K	0.0704
in acetonitrile, 298.15 K	0.0782
in acetonitrile, 300.65 K	0.0867
in acetonitrile, 303.15 K	0.0957
in acetonitrile, 305.65 K	0.106
in acetonitrile, 308.15 K	0.116
in acetonitrile, 310.65 K	0.128
in acetonitrile, 313.15 K	0.14
in acetonitrile, 315.65 K	0.154
in acetonitrile, 318.15 K	0.168
in ethanol, 278.15 K	0.043
in ethanol, 280.65 K	0.0493
in ethanol, 283.15 K	0.0563
in ethanol, 285.65 K	0.0639
in ethanol, 288.15 K	0.0725
in ethanol, 290.65 K	0.0815
in ethanol, 293.15 K	0.0914
in ethanol, 295.65 K	0.102
in ethanol, 298.15 K	0.115
in ethanol, 300.65 K	0.128
in ethanol, 303.15 K	0.142
in ethanol, 305.65 K	0.156
in ethanol, 308.15 K	0.173
in ethanol, 310.65 K	0.191
in ethanol, 313.15 K	0.209
in ethanol, 315.65 K	0.227
in ethanol, 318.15 K	0.247
in ethyl acetate, 278.15 K	0.0708
in ethyl acetate, 280.65 K	0.0787
in ethyl acetate, 283.15 K	0.0877
in ethyl acetate, 285.65 K	0.0968
in ethyl acetate, 288.15 K	0.106
in ethyl acetate, 290.65 K	0.117
in ethyl acetate, 293.15 K	0.129
in ethyl acetate, 295.65 K	0.141
in ethyl acetate, 298.15 K	0.155
in ethyl acetate, 300.65 K	0.169
in ethyl acetate, 303.15 K	0.184
in ethyl acetate, 305.65 K	0.2
in ethyl acetate, 308.15 K	0.216
in ethyl acetate, 310.65 K	0.234
in ethyl acetate, 313.15 K	0.251
in ethyl acetate, 315.65 K	0.272
in ethyl acetate, 318.15 K	0.293
in isopropanol, 278.15 K	0.0535
in isopropanol, 280.65 K	0.0607
in isopropanol, 283.15 K	0.0683
in isopropanol, 285.65 K	0.0773
in isopropanol, 288.15 K	0.0868
in isopropanol, 290.65 K	0.0972
in isopropanol, 293.15 K	0.109
in isopropanol, 295.65 K	0.121
in isopropanol, 298.15 K	0.134
in isopropanol, 300.65 K	0.148
in isopropanol, 303.15 K	0.164
in isopropanol, 305.65 K	0.18
in isopropanol, 308.15 K	0.198
in isopropanol, 310.65 K	0.218
in isopropanol, 313.15 K	0.238
in isopropanol, 315.65 K	0.259
in isopropanol, 318.15 K	0.281
in methanol, 278.15 K	0.0342
in methanol, 280.65 K	0.0392
in methanol, 283.15 K	0.0449
in methanol, 285.65 K	0.0516
in methanol, 288.15 K	0.0587
in methanol, 290.65 K	0.0668
in methanol, 293.15 K	0.076
in methanol, 295.65 K	0.0858
in methanol, 298.15 K	0.0969
in methanol, 300.65 K	0.109
in methanol, 303.15 K	0.121
in methanol, 305.65 K	0.136
in methanol, 308.15 K	0.151
in methanol, 310.65 K	0.168
in methanol, 313.15 K	0.186
in methanol, 315.65 K	0.205
in methanol, 318.15 K	0.224
in n-butanol, 278.15 K	0.0545
in n-butanol, 280.65 K	0.0615
in n-butanol, 283.15 K	0.0692
in n-butanol, 285.65 K	0.0775
in n-butanol, 288.15 K	0.0864
in n-butanol, 290.65 K	0.0963
in n-butanol, 293.15 K	0.107
in n-butanol, 295.65 K	0.118
in n-butanol, 298.15 K	0.13
in n-butanol, 300.65 K	0.143
in n-butanol, 303.15 K	0.157
in n-butanol, 305.65 K	0.171
in n-butanol, 308.15 K	0.187
in n-butanol, 310.65 K	0.203
in n-butanol, 313.15 K	0.22
in n-butanol, 315.65 K	0.239
in n-butanol, 318.15 K	0.259
in n-propanol, 278.15 K	0.0532
in n-propanol, 280.65 K	0.0597
in n-propanol, 283.15 K	0.0669
in n-propanol, 285.65 K	0.0751
in n-propanol, 288.15 K	0.0836
in n-propanol, 290.65 K	0.093
in n-propanol, 293.15 K	0.103
in n-propanol, 295.65 K	0.114
in n-propanol, 298.15 K	0.125
in n-propanol, 300.65 K	0.138
in n-propanol, 303.15 K	0.151
in n-propanol, 305.65 K	0.165
in n-propanol, 308.15 K	0.18
in n-propanol, 310.65 K	0.196
in n-propanol, 313.15 K	0.213
in n-propanol, 315.65 K	0.23
in n-propanol, 318.15 K	0.249
in toluene, 278.15 K	0.000979
in toluene, 280.65 K	0.00109
in toluene, 283.15 K	0.00119
in toluene, 285.65 K	0.00133
in toluene, 288.15 K	0.00146
in toluene, 290.65 K	0.00162
in toluene, 293.15 K	0.00178
in toluene, 295.65 K	0.00197
in toluene, 298.15 K	0.00217
in toluene, 300.65 K	0.00236
in toluene, 303.15 K	0.00259
in toluene, 305.65 K	0.00283
in toluene, 308.15 K	0.00309
in toluene, 310.65 K	0.0034
in toluene, 313.15 K	0.00367
in toluene, 315.65 K	0.00399
in toluene, 318.15 K	0.00435

— BigSolDB 2.1
